This note sets out measurements from paper PMC6009944, “Synthesis, antitumour activities and molecular docking of thiocarboxylic acid ester-based NSAID scaffolds: COX-2 inhibition and mechanistic studies” (Journal of Enzyme Inhibition and Medicinal Chemistry, 2018).

What is called inhibition is the relative decrease from the control value, in per cent. One may read the melting point as the temperature, or range, at which the solid turns liquid. The IC50 is the point on the concentration scale where inhibition reaches its midpoint.

One series addresses T1, EGFR (Homo sapiens, UniProt P00533).
T1 construct: purchased BPS Bioscience
The experiment in a line: Kinase inhibition assay (Kinase-Glo Plus), EGFR. The series is classed as biochemical. The note with it: read-out: % inhibition of 10 μM EGFR; 10 μM compound. How it is done:
(§1) Luminescence signal was measured using a BioTek Synergy 2 microplate reader.

The target of the next series is T2, HER2 (Homo sapiens, UniProt P04626).
T2 construct: purchased BPS Bioscience
The experiment in a line: Kinase inhibition assay (Kinase-Glo Plus), HER2. Conditions: read-out: % inhibition of 10 μM HER2; 10 μM compound. The series is classed as biochemical. The procedure:
as §1
A general note: Kinase-Glo measures the ATP left after a reaction by luminescence.

In a further series the target is T3, HER4 (Homo sapiens, UniProt Q15303).
T3 construct: purchased BPS Bioscience
Description: Kinase inhibition assay (Kinase-Glo Plus), HER4. The series is classed as biochemical. Conditions: read-out: % inhibition of 10 μM HER4; 10 μM compound. How it is done:
as §1

The target in the next series is T4, cSrc (Homo sapiens, UniProt P12931).
T4 construct: purchased BPS Bioscience
Description: Kinase inhibition assay (Kinase-Glo Plus), cSrc. The series is classed as biochemical. The note with it: read-out: % inhibition; 10 μM compound. The procedure:
as §1

The subject of a further series is HepG2. The experiment in a line: MTT antitumor assay, HepG2. Conditions: Homo sapiens, HepG2, read-out: IC50 (μM) HepG2. In general terms: Tetrazolium assays rely on reduction of a dye to a coloured formazan, in cell work by metabolically active cells.
A further series relates to MCF-7. The experiment in a line: MTT antitumor assay, MCF-7. Conditions: Homo sapiens, MCF7, read-out: IC50 (μM) MCF-7, human breast adenocarcinoma cell line, MTT, mean ± SD, n = 3.
The test system of another series is Caco-2. The experiment in a line: MTT antitumor assay, Caco-2. The note with it: Homo sapiens, Caco-2, read-out: IC50 (μM) Caco-2.
In another series the test system is HCT-116. Description: MTT antitumor assay, HCT-116. Conditions: Homo sapiens, HCT-116, read-out: IC50 (μM) HCT-116, human colon cancer cell line, MTT, mean ± SD, n = 3.
The target in the next series is T5, COX-1 (Ovis aries, UniProt P05979).
T5 sequence (P05979 25-600): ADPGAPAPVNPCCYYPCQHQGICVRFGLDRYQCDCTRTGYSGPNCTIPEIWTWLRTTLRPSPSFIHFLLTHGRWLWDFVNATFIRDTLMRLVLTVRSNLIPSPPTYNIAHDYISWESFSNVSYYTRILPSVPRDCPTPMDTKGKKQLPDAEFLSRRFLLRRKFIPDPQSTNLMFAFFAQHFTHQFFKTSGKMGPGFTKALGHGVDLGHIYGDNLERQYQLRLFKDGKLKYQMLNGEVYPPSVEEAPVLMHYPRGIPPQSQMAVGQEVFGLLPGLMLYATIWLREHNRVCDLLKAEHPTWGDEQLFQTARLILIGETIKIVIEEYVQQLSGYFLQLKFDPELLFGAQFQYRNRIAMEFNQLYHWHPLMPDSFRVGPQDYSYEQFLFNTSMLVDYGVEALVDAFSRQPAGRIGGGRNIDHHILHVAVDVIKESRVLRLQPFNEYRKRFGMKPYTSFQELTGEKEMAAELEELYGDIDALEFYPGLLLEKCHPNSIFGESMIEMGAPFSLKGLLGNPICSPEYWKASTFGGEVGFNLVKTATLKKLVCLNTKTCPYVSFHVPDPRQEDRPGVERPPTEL
Description: In vitro COX-1 enzyme inhibition assay (colorimetric kit).

In another series the target is T6, COX-2 (Ovis aries, UniProt P79208).
T6 sequence (P79208 17-603): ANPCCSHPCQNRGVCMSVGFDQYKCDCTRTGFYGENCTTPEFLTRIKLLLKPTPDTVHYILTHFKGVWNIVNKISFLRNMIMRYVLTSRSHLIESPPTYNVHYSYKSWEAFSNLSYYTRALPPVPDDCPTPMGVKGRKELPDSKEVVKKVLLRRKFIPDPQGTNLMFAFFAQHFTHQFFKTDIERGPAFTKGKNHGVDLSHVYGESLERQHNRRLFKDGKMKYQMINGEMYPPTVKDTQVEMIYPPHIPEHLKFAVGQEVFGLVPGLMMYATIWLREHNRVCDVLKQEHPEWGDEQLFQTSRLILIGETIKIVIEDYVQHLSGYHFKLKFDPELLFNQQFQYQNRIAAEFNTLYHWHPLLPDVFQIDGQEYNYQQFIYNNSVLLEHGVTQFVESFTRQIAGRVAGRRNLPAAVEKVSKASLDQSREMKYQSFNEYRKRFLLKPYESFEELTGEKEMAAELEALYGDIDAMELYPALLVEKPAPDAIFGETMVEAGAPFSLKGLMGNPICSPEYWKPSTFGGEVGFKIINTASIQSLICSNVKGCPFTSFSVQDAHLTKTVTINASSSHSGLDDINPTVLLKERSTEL
Description: In vitro COX-2 enzyme inhibition assay (colorimetric kit). Conditions: for SI, selectivity index (COX-1 IC50/COX-2 IC50): COX-2 selectivity over COX-1.

T4 sequence (P12931 whole entry): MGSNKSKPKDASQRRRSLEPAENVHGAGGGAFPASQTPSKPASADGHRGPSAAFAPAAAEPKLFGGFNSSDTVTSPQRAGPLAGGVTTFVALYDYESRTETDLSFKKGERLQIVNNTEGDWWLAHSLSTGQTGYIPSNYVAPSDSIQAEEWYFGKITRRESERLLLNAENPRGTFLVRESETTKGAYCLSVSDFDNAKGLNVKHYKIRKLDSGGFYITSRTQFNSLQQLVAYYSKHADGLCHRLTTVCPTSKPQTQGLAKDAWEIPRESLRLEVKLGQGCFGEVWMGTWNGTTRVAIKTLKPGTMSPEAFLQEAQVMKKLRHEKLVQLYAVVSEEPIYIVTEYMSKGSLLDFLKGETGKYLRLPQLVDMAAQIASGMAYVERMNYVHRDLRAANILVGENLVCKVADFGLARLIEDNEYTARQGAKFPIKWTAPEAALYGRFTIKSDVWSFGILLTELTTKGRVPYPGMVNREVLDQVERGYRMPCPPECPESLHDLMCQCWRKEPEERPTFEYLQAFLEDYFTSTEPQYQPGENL
T3 sequence (Q15303 26-1308): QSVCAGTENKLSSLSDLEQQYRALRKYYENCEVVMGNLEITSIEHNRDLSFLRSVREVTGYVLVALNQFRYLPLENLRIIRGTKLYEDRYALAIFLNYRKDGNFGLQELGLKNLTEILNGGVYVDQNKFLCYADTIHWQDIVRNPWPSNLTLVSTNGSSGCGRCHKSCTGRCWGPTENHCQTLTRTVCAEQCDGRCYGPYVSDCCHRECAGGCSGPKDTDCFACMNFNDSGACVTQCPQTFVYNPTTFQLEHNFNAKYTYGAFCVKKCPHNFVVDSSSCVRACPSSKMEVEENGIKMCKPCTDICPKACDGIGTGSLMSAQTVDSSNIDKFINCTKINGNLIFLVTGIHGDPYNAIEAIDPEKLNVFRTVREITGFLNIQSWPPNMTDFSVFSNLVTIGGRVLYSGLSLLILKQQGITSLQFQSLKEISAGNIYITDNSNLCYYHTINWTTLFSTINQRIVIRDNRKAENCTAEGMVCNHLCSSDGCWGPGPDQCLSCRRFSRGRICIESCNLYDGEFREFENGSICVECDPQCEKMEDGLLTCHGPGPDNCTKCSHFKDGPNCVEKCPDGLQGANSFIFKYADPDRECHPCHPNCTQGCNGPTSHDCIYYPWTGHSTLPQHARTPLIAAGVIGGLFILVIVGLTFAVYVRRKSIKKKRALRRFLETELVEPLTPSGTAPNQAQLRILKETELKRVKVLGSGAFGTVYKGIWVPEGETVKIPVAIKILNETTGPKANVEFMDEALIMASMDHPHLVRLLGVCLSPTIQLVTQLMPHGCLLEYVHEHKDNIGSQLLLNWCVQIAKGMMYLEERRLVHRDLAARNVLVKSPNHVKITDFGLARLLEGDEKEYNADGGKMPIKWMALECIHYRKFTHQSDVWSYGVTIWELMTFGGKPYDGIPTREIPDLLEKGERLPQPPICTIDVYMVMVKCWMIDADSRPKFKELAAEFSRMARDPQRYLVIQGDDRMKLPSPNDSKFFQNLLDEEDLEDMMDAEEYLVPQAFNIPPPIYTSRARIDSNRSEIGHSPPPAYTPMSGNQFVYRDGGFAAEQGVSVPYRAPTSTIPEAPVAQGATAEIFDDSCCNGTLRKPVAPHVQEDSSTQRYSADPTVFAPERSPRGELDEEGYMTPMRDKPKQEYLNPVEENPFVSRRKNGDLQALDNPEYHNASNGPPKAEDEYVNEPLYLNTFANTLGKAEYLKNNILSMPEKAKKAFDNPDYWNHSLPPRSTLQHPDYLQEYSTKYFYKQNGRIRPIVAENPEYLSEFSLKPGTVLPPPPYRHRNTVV
T1 sequence (P00533 25-1210): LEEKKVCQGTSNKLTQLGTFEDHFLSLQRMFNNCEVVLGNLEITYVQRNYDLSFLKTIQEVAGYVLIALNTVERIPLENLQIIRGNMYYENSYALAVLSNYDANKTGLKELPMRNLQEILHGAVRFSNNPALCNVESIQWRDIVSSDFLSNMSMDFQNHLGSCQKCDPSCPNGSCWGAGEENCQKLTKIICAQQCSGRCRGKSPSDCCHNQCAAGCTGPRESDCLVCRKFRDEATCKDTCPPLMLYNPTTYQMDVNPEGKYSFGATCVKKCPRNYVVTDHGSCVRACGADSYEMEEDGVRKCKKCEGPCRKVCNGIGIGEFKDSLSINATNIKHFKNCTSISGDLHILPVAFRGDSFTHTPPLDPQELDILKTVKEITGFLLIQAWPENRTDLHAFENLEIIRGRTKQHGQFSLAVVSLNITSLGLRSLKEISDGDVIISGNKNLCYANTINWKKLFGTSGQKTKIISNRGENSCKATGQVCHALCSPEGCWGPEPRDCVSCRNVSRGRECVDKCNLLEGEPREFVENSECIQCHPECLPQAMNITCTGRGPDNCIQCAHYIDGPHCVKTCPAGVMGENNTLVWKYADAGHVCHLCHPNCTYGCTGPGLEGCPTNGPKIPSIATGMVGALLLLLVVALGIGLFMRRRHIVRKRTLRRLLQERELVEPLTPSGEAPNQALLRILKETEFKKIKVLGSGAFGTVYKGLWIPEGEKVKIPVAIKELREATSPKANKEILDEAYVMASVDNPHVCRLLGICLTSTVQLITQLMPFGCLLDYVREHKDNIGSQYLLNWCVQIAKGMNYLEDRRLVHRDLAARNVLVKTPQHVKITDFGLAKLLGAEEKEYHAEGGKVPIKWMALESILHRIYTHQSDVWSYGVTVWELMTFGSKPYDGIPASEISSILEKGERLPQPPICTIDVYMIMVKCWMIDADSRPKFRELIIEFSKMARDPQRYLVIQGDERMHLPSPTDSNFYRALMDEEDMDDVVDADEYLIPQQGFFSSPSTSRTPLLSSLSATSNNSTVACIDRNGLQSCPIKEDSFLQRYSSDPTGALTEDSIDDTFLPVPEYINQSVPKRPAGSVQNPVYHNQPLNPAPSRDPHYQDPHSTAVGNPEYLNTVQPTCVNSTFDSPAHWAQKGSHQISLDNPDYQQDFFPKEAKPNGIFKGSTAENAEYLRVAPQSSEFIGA
T2 sequence (P04626 23-1255): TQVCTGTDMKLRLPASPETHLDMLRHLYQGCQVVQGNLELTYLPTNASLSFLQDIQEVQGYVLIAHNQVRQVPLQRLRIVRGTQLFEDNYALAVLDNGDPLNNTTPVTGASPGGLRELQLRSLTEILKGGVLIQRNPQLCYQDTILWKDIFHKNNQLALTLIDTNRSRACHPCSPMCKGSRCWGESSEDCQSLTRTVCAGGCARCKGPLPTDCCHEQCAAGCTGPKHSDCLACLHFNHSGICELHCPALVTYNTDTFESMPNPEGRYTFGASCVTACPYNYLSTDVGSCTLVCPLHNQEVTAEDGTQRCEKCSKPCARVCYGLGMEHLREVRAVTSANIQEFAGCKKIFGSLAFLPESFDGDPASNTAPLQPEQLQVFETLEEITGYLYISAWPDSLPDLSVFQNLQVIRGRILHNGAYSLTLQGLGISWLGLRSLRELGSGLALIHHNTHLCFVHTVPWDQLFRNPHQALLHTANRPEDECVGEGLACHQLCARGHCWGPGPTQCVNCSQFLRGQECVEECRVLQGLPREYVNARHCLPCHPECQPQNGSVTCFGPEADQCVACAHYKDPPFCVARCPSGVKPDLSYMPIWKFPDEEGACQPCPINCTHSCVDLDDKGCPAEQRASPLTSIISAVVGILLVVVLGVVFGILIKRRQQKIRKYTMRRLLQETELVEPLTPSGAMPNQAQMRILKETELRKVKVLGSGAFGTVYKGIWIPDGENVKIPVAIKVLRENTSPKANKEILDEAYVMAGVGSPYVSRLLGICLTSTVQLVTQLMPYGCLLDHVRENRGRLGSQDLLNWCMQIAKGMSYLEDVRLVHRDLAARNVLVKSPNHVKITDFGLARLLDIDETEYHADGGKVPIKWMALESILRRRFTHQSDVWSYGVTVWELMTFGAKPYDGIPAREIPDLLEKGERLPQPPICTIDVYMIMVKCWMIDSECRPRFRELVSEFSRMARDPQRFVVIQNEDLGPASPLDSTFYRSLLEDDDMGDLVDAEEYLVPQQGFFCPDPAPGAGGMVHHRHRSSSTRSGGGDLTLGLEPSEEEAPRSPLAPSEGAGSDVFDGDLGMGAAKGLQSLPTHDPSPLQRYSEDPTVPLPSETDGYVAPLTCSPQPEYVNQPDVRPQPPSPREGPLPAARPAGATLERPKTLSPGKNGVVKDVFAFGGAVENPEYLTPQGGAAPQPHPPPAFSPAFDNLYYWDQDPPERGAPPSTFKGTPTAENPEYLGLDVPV
Description for COX-1: (§2) IC50 (represented in μM) (The half-maximal inhibitor concentration) values were determined[56–59], and the SI values were calculated[51]^,[52]^,[55] as IC50 (COX-1)/IC50 (COX-2).
Description for COX-2: as §2
Description for Caco-2: (§3) The evaluation of the antitumour activity was performed using tetrazolium salt MTT (3–(4,5-dimethyl-2-thiazolyl)-2,5-diphenyl-2H-tetrazolium bromide) assay as reported[47–50].
Description for HCT-116: as §3
Description for HepG2: as §3
Description for MCF-7: as §3

Molecule `O=C(Cc1ccccc1Nc1c(Cl)cccc1Cl)Sc1ccccc1` [6a, S-phenyl-2–(2-((2,6-dichlorophenyl)amino)phenyl)ethanethioate] came in with a melting point of 101 to 102 °C. Further, the inhibition at 10 µM at EGFR is 6%. In addition, the inhibition at 10 µM on HER2 turned out to be 1%. Besides, on HER4, the inhibition at 10 µM was determined as 5%. Besides, the inhibition at 10 µM on cSrc was determined as 5%. Also, the IC50 with HepG2 was determined as 26.8 ± 2.08 µM. In addition, the half-inhibitory concentration (IC50) in the series on MCF-7 is 6.11 ± 0.31 µM. Further, in the series with Caco-2, the IC50 was 10.2 ± 0.92 µM. Besides, the IC50 with HCT-116 turned out to be 46.9 ± 3.23 µM. Moreover, the IC50 on COX-1 was > 50 µM. Besides, on COX-2, it took 250 ± 17 nM to reach half-maximal inhibition (IC50) and the “SI, selectivity index (COX-1 IC50/COX-2 IC50)” value is listed as >200.0.
`COc1ccc2c(c1)c(CC(=O)Sc1ccccc1)c(C)n2C(=O)c1ccc(Cl)cc1` [7a, S-phenyl-2–(1-(4-chlorobenzoyl)-5-methoxy-2-methyl-1H-indol-3-yl)ethanethioate] came in with a melting point of 133 to 135 °C. Further, the inhibition at 10 µM at EGFR was 0%. Moreover, at HER2, the inhibition at 10 µM turned out to be 0%. Further, at HER4, the inhibition at 10 µM was 4%. In addition, the inhibition at 10 µM at cSrc came to 1%. The half-maximal inhibitory concentration (IC50) in the series on HepG2 worked out at 7.86 ± 0.39 µM. For the same molecule, the IC50 in the series with MCF-7 came to 9.65 ± 0.96 µM. In addition, the 50% inhibitory concentration (IC50) in the series with Caco-2 came to 18.1 ± 1.73 µM. In the series with HCT-116, the IC50 was 14.6 ± 1.24 µM. Moreover, on COX-1, the half-maximal inhibitory concentration (IC50) is > 50 µM. Besides, on COX-2, it took 220 ± 19 nM to reach half-maximal inhibition (IC50) and the “SI, selectivity index (COX-1 IC50/COX-2 IC50)” value is on record as >227.3.
Consider `COc1ccc2c(c1)c(CC(=O)SC1CCCCC1)c(C)n2C(=O)c1ccc(Cl)cc1` [7b, S-cyclohexyl-2–(1-(4-chlorobenzoyl)-5-methoxy-2-methyl-1H-indol-3-yl)ethanethioate], for which the melting point lay within 97 to 98 °C. Also, the inhibition at 10 µM at EGFR is 1%. The inhibition at 10 µM at HER2 was 0%. In addition, the inhibition at 10 µM on HER4 came out at 3%. In addition, the inhibition at 10 µM on cSrc worked out at 3%. For the same molecule, the IC50 in the series with HepG2 came out at 14.9 ± 1.38 µM. In addition, the 50% inhibitory concentration (IC50) in the series with MCF-7 was 17.1 ± 1.4 µM. Moreover, in the series on Caco-2, the IC50 was determined as 29.1 ± 2.45 µM. Besides, in the series with HCT-116, the IC50 stood at 34 ± 2.25 µM. The IC50 against COX-1 was > 50 µM. For the same molecule, at COX-2, half-maximal inhibition (IC50) required 490 ± 44 nM and the “SI, selectivity index (COX-1 IC50/COX-2 IC50)” value was >102.0.
